Measurements reported in the supplement of paper PMC10307832.

Experiments:
Assay in all cases: relative viability (nuclei count vs DMSO), 5 days (fraction); higher = more cells survive
GSK126 + Foretinib = compound: CC[C@H](C)N1C=C(C2=C(C=C(C=C21)C3=CN=C(C=C3)N4CCNCC4)C(=O)NCC5=C(C=C(NC5=O)C)C)C [GSK126] + COc1cc2c(Oc3ccc(NC(=O)C4(C(=O)Nc5ccc(F)cc5)CC4)cc3F)ccnc2cc1OCCCN1CCOCC1 [Foretinib] (partner 0.25 µM)
Outline: (§1)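 After 5 days of treatment, lung cancer cells in 1536-well plates were fixed and stained in a single step (final 0.05% Triton X-100, 1% formaldehyde, 1 ug/ml Hoechst) and their nuclei counted on 4× images. Treatment had been applied by pin tool the day after seeding as one drug alone or as a fixed anchor-drug dose with five library-drug doses (not always all listed) in √10 steps. Relative viability is the nuclei count of treated wells divided by that of vehicle wells, and values are medians of duplicate plates.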

MLN4924 + OSI-027 = compound: NS(=O)(=O)OC[C@@H]1C[C@@H](n2ccc3c(N[C@H]4CCc5ccccc54)ncnc32)C[C@@H]1O [MLN4924] + COc1cccc2cc(-c3nc([C@H]4CC[C@H](C(=O)O)CC4)n4ncnc(N)c34)[nH]c12 [OSI-027] (partner 0.5 µM)
Outline: as §1

Carboplatin + Pemetrexed = compound: C1CC(C1)(C(=O)O)C(=O)O.[NH2-].[NH2-].[Pt+2] [Carboplatin] + Nc1nc2[nH]cc(CCc3ccc(C(=O)N[C@@H](CCC(=O)O)C(=O)O)cc3)c2c(=O)[nH]1 [Pemetrexed] (partner 0.2 µM)
Outline: as §1

Carboplatin + Luminespib = compound: C1CC(C1)(C(=O)O)C(=O)O.[NH2-].[NH2-].[Pt+2] [Carboplatin] + CCNC(=O)c1noc(-c2cc(C(C)C)c(O)cc2O)c1-c1ccc(CN2CCOCC2)cc1 [Luminespib] (partner 0.01 µM)
Outline: as §1

Cell Line	relative viability (GSK126 + Foretinib; first compound 0.08 µM)	relative viability (GSK126 + Foretinib; first compound 0.253 µM)	relative viability (GSK126 + Foretinib; first compound 0.8 µM)	relative viability (GSK126 + Foretinib; first compound 2.53 µM)	relative viability (GSK126 + Foretinib; first compound 8 µM)	relative viability (MLN4924 + OSI-027; first compound 0.04 µM)	relative viability (MLN4924 + OSI-027; first compound 0.1265 µM)	relative viability (MLN4924 + OSI-027; first compound 0.4 µM)	relative viability (MLN4924 + OSI-027; first compound 1.265 µM)	relative viability (MLN4924 + OSI-027; first compound 4 µM)	relative viability (Carboplatin + Pemetrexed; first compound 0.08 µM)	relative viability (Carboplatin + Pemetrexed; first compound 0.253 µM)	relative viability (Carboplatin + Pemetrexed; first compound 0.8 µM)	relative viability (Carboplatin + Pemetrexed; first compound 2.53 µM)	relative viability (Carboplatin + Pemetrexed; first compound 8 µM)	relative viability (Carboplatin + Luminespib; first compound 0.08 µM)	relative viability (Carboplatin + Luminespib; first compound 0.253 µM)	relative viability (Carboplatin + Luminespib; first compound 0.8 µM)	relative viability (Carboplatin + Luminespib; first compound 2.53 µM)	relative viability (Carboplatin + Luminespib; first compound 8 µM)
A-427	1.31	0.999	1.07	1.1	1.13	0.356	0.239	0.214	0.173	0.171	1.03	1.01	0.942	0.897	1.05	0.934	0.928	0.928	0.803	0.976
HCC-15	1.08	1.04	1.08	1.04	0.887	0.347	0.197	0.139	0.0813	0.0848	0.228	0.228	0.216	0.232	0.22	0.434	0.302	0.177	0.306	0.42
NCI-H1623	0.941	0.888	0.916	0.883	0.799	0.404	0.421	0.404	0.333	0.314	–	–	–	–	–	0.548	0.469	0.457	0.507	0.433
NCI-H2342	1.16	1.05	0.998	1.05	1.16	0.586	0.779	0.532	0.594	0.547	0.786	0.844	0.791	0.834	0.762	0.898	0.789	0.68	0.788	0.608
